Results taken from US12156893B2, “Oral composition comprising lactic acid bacteria for regulating immune responses and methods related thereto” (The Regents of the University of California, priority 2016, dated 2024).

System: NK cells
Assay: Production of cytokines, growth factors and chemokines by NK cells treated with bacterial strains (Bio-Plex 27-plex)
Format: cell-based, human
Set-up: unit not given here
Procedure: Different strains of probiotic bacteria were tested for their ability to induce IFN-g as well as a number of important cytokines, chemokines and growth factors (Table 1). To assess the levels of each strain used in the combination we used an activation index established in the lab for the NK cells which consisted of the use of a specific ratio of several important cytokines and chemokines that prevented auto-immunity while enhancing significant activation of NK cells under pathologic conditions. Therefore, the strains were selected to: 1) provide regulated activation of NK cells when no activation of NK cells is desired; 2) when activated by cytokines and/or cross-linking of the important receptors which occurs during functional activation of NK cells in cancer is to induce maximal activation of NK cells; and 3) provide diversity for gut microflora. These criteria allow us to use bacteria to regulate the gut mucosal immunity in such a way that we will only increase NK activation when needed during infections or malignancies. In other words when there is no need for function of NK cells bacteria will regulate NK function to not induce inflammation; however, during need which occurs under the pathological conditions NK cells are triggered to function at the maximal levels. Such coordinated regulation of NK cell function should be effective in halting unwanted inflammation while providing effective and maximal immunity during disease.
Written informed consents, approved by UCLA Institutional Review Board (IRB), were obtained from healthy blood donors, and all procedures were approved by the UCLA-IRB. Peripheral blood was separated using Ficoll-Hypaque centrifugation, after which the white, cloudy layer, containing peripheral blood mononuclear cells (PBMC), was harvested, washed and re-suspended in RPMI 1640 (Invitrogen by Life Technologies, CA) supplemented with 10% FBS and plated on plastic tissue culture dishes. After 1-2 hours of incubation, non-adherent, human peripheral blood lymphocytes (PBL) were collected. NK cells were negatively selected and isolated from PBLs using the EasySep® Human NK cell enrichment kit purchased from Stem Cell Technologies (Vancouver, BC, Canada). Isolated NK cells were stained with anti-CD16 antibody, to measure NK cell purity using flow cytometric analysis. The isolated NK cell population was greater than 90% purity. Purified NK cells were cultured in RPMI Medium 1640 supplemented with 10% FBS (Gemini Bio-Products, CA), 1% antibiotic antimycotic, 1% sodium pyruvate, and 1% MEM non-essential amino acids (Invitrogen, Life Technologies, CA).
Purified NK cells from healthy donors were left untreated or treated with IL-2 (1000 units/ml) or the combination of anti-CD16 mAb (3 μg/ml) and IL-2 (1000 units/ml) in the presence or absence of bacterial strains at 1:5 ratio (NK cell: bacteria) for 12-18 hours. Afterwards, the levels of cytokines, growth factors and chemokines were determined using Bio-Plex Pro Human Cytokine 27-plex Assay Kit.

[1] = Treatment NK (no activation), bacteria 1:5 NK cell:bacteria, 12-18 hours
[2] = Treatment NK + IL-2 (1000 units/ml), bacteria 1:5, 12-18 hours
[3] = Treatment NK + IL-2 + anti-CD16 mAb (3 μg/ml), bacteria 1:5, 12-18 hours

## Lactobacillus acidophilus [L. acidophilus]
[1]
  Eotaxin: 16
  G-CSF: 141
  GM-CSF: 110
  IFN-γ: 366
  IL-1B: 819
  IL-1ra: 181
  IL-6: 10357
  IL-8: 6879
  IL-10: 62
  IL-12p70: 299
  IL-13: 5
  IL-17: 63
  IP-10: 77
  MCP-1: 400
  RANTES: 2553
  TNF-α: 6858
[2]
  Eotaxin: 21
  G-CSF: 89
  GM-CSF: 127
  IFN-γ: 1329
  IL-1B: 335
  IL-1ra: 487
  IL-6: 2095
  IL-8: 1116
  IL-10: 17
  IL-12p70: 136
  IL-13: 8
  IL-17: 63
  IP-10: 51
  MCP-1: 112
  RANTES: 2353
  TNF-α: 1151
[3]
  Eotaxin: 31
  G-CSF: 102
  GM-CSF: 199
  IFN-γ: 2715
  IL-1B: 654
  IL-1ra: 493
  IL-6: 3684
  IL-8: 2004
  IL-10: 24
  IL-12p70: 155
  IL-13: 23
  IL-17: 73
  IP-10: 69
  MCP-1: 289
  RANTES: 3999
  TNF-α: 5663

## Streptococcus thermophilus [S. thermophilus]
[1]
  Eotaxin: 40
  G-CSF: 149
  GM-CSF: 131
  IFN-γ: 785
  IL-1B: 1381
  IL-1ra: 229
  IL-6: 10222
  IL-8: 3326
  IL-10: 63
  IL-12p70: 515
  IL-13: 9
  IL-17: 74
  IP-10: 64
  MCP-1: 502
  RANTES: 2580
  TNF-α: 18892
[2]
  Eotaxin: 21
  G-CSF: 87
  GM-CSF: 124
  IFN-γ: 1188
  IL-1B: 390
  IL-1ra: 465
  IL-6: 1773
  IL-8: 1341
  IL-10: 17
  IL-12p70: 132
  IL-13: 9
  IL-17: 65
  IP-10: 45
  MCP-1: 169
  RANTES: 2197
  TNF-α: 2413
[3]
  Eotaxin: 29
  G-CSF: 101
  GM-CSF: 177
  IFN-γ: 2594
  IL-1B: 642
  IL-1ra: 434
  IL-6: 2475
  IL-8: 1841
  IL-10: 23
  IL-12p70: 163
  IL-13: 15
  IL-17: 57
  IP-10: 58
  MCP-1: 332
  RANTES: 2097
  TNF-α: 4917

## Lactobacillus bulgaricus [L. bulgaricus]
[1]
  Eotaxin: 7
  G-CSF: 77
  GM-CSF: 121
  IFN-γ: 144
  IL-1B: 293
  IL-1ra: 112
  IL-6: 2518
  IL-8: 4501
  IL-10: 22
  IL-12p70: 25
  IL-13: 9
  IL-17: 49
  IP-10: 88
  MCP-1: 609
  RANTES: 3804
  TNF-α: 868
[2]
  Eotaxin: 15
  G-CSF: 69
  GM-CSF: 120
  IFN-γ: 381
  IL-1B: 123
  IL-1ra: 449
  IL-6: 837
  IL-8: 1997
  IL-10: 12
  IL-12p70: 21
  IL-13: 10
  IL-17: 55
  IP-10: 78
  MCP-1: 313
  RANTES: 4737
  TNF-α: 439
[3]
  Eotaxin: 6
  G-CSF: 59
  GM-CSF: 136
  IFN-γ: 306
  IL-1B: 141
  IL-1ra: 383
  IL-6: 685
  IL-8: 1819
  IL-10: 9
  IL-12p70: 5
  IL-13: 8
  IL-17: 50
  IP-10: 72
  MCP-1: 305
  RANTES: 4062
  TNF-α: 1064

## Bifidobacterium longum [B. longum]
[1]
  Eotaxin: 32
  G-CSF: 938
  GM-CSF: 131
  IFN-γ: 158
  IL-1B: 813
  IL-1ra: 312
  IL-6: 60895
  IL-8: 9507
  IL-10: 298
  IL-12p70: 42
  IL-13: 9
  IL-17: 74
  IP-10: 38
  MCP-1: 80
  RANTES: 2325
  TNF-α: 5880
[2]
  Eotaxin: 33
  G-CSF: 244
  GM-CSF: 135
  IFN-γ: 671
  IL-1B: 408
  IL-1ra: 472
  IL-6: 7287
  IL-8: 2195
  IL-10: 52
  IL-12p70: 47
  IL-13: 11
  IL-17: 73
  IP-10: 46
  MCP-1: 33
  RANTES: 2189
  TNF-α: 2896
[3]
  Eotaxin: 28
  G-CSF: 386
  GM-CSF: 158
  IFN-γ: 1282
  IL-1B: 498
  IL-1ra: 461
  IL-6: 2916
  IL-8: 2906
  IL-10: 68
  IL-12p70: 33
  IL-13: 19
  IL-17: 69
  IP-10: 42
  MCP-1: 75
  RANTES: 1088
  TNF-α: 4240

## Lactobacillus paracasei [L. paracasei]
[1]
  Eotaxin: 4
  G-CSF: 106
  GM-CSF: 99
  IFN-γ: 186
  IL-1B: 320
  IL-1ra: 129
  IL-6: 3029
  IL-8: 3716
  IL-10: 70
  IL-12p70: 70
  IL-13: 8
  IL-17: 40
  IP-10: 53
  MCP-1: 506
  RANTES: 1069
  TNF-α: 3809
[2]
  Eotaxin: 27
  G-CSF: 138
  GM-CSF: 157
  IFN-γ: 2112
  IL-1B: 523
  IL-1ra: 551
  IL-6: 7285
  IL-8: 3983
  IL-10: 47
  IL-12p70: 125
  IL-13: 15
  IL-17: 63
  IP-10: 90
  MCP-1: 337
  RANTES: 6468
  TNF-α: 6776
[3]
  Eotaxin: 40
  G-CSF: 153
  GM-CSF: 215
  IFN-γ: 2145
  IL-1B: 721
  IL-1ra: 573
  IL-6: 6867
  IL-8: 6385
  IL-10: 43
  IL-12p70: 123
  IL-13: 27
  IL-17: 90
  IP-10: 92
  MCP-1: 427
  RANTES: >22609
  TNF-α: 10128

## Bifidobacterium breve [B. breve]
[1]
  Eotaxin: 15
  G-CSF: 363
  GM-CSF: 101
  IFN-γ: 99
  IL-1B: 200
  IL-1ra: 196
  IL-6: 9726
  IL-8: 3975
  IL-10: 127
  IL-12p70: 10
  IL-13: 5
  IL-17: 53
  IP-10: 32
  MCP-1: 265
  RANTES: 1662
  TNF-α: 2904
[2]
  Eotaxin: 22
  G-CSF: 138
  GM-CSF: 127
  IFN-γ: 284
  IL-1B: 165
  IL-1ra: 470
  IL-6: 3402
  IL-8: 1912
  IL-10: 36
  IL-12p70: 21
  IL-13: 9
  IL-17: 57
  IP-10: 35
  MCP-1: 72
  RANTES: 1988
  TNF-α: 1868
[3]
  Eotaxin: 29
  G-CSF: 289
  GM-CSF: 180
  IFN-γ: 844
  IL-1B: 421
  IL-1ra: 565
  IL-6: 7261
  IL-8: 4929
  IL-10: 68
  IL-12p70: 26
  IL-13: 28
  IL-17: 72
  IP-10: 55
  MCP-1: 153
  RANTES: 3934
  TNF-α: 1498
